Experimental data published in US9650399B2, “Salicylic acid derivatives, pharmaceutically acceptable salt thereof, composition thereof and method of use thereof” (The Governing Council of the University of Toronto, priority 2012, dated 2017).
Read-outs that look alike come from different tables or passages of the source.

Tests used:
[1] = tested on: BTSC73M; assay: alamarBlue cell viability, BTSC 73M; assay type: cell-based, human; settings: alamarBlue; for IC50: Homo sapiens
Protocol: (§1) First, the library was screened for biological activity against a set of three representative GBM BTSCs derived from GBM patients, including the very aggressive GBM BTSC lines, BTSC73M, BTSC30M, BTSC68EF. Dissociated BTSC spheres were seeded at 1500 cells/96-well and treated with drug compound or vehicle (DMSO) one day after plating. Cell viability following drug treatment was assessed after 72 hrs using the ALAMARBLUE™ assay (Invitrogen) according to the manufacturer's instructions. All culture experiments were performed in triplicate with a minimum of three wells per condition.
(§2) BTSC spheres were dissociated to single cells with the enzyme Accumax (Innovative Technologies), seeded at 1500 cells/96-well and treated with drug or vehicle (DMSO) one day after plating. […] BTSC spheres were dissociated to single cells as above and plated in 96 well plates in triplicate at 3000 cells/96-well. […] Cell viability following drug treatment was assessed three days later using the ALAMARBLUE™ assay (Invitrogen) according to the manufacturer's instructions. All culture experiments were performed in triplicate with a minimum of three wells per condition.

[2] = tested on: BTSC30M; assay: alamarBlue cell viability, BTSC 30M; assay type: cell-based, human; settings: for IC50: Homo sapiens
Protocol: as §1, §2

[3] = tested on: BTSC68EF; assay: alamarBlue cell viability, BTSC 68EF; assay type: cell-based, human; settings: Table 4 library screen, alamarBlue; for IC50: Homo sapiens, read-out: 68EF IC50
Protocol: as §1, §2

[4] = tested on: leukemia cancer cells (AML-2); assay: IC50 in leukemia cancer cells; assay type: cell-based; settings: Table 6
[5] = tested on: Breast cancer cells (MDA-MB-468); assay: IC50 in breast cancer cells; assay type: cell-based; settings: Homo sapiens, Table 6
[6] = tested on: BTSCs; assay: alamarBlue cytotoxicity across BTSC lines; assay type: cell-based, human
Protocol: as §1, §2

[7] = tested on: Prostate (DU145); assay: IC50 in prostate cancer cells; assay type: cell-based; settings: Homo sapiens, DU-145; Table 6
[8] = tested on: 147EF; assay: alamarBlue cell viability, BTSC 147EF; assay type: cell-based, human; settings: Table 4 library screen; for IC50: Homo sapiens
Source text: BTSC spheres were dissociated to single cells with the enzyme Accumax (Innovative Technologies), seeded at 1500 cells/96-well and treated with drug or vehicle (DMSO) one day after plating. Cytotoxicity studies were repeated independently at Sickkids Hospital using BTSC lines 25M, 67EF, 73EF, 84EF and 127EF. BTSC spheres were dissociated to single cells as above and plated in 96 well plates in triplicate at 3000 cells/96-well. In both sets of experiments drugs were used as serial dilutions within the range of 5 μM to 100 nM in the first set and 25 μM to 10 nM. Cell viability following drug treatment was assessed three days later using the ALAMARBLUE™ assay (Invitrogen) according to the manufacturer's instructions. All culture experiments were performed in triplicate with a minimum of three wells per condition. Table 4 below illustrates a screen of the library against a number of BTSCs using ALAMARBLUE™ assay.

[9] = tested on: pSTAT3 (Y705); assay: Western blot of phosphorylated STAT3 in BTSCs; assay type: cell-based, human; settings: BTSC 73M, 1 μM inhibitor
Source text: Blots were stained with antibodies: phospho-Y705, phospho-S727, Bcl-xL, cyclin D1, PARP and Actin. Bands were visualized with the ECL PLUS™ Western Blotting Detection System and […]™ (Amersham). […] BTSC spheres were lysed in modified RIPA buffer supplemented with Complete Mini protease (Roche) and Halt phosphatase (Thermo Scientific) inhibitor cocktails. […] Blots were stained with the following antibodies: phospho-STAT3 Y705 (1:1000, Cell Signalling Technology), phospho-STAT3 S727 (1:1000, Cell Signalling Technology), STAT3 (1:1000, Santa Cruz Biotechnology), Bcl-xL (1:1000, Cell Signalling Technology), cyclin D1 (1:1000, Cell Signalling Technology) PARP (1:1000, Cell Signalling Technology) and Actin (1:2500, Santa Cruz Biotechnology). HRP conjugated secondary antibodies, goat anti-rabbit (Cell Signalling Technology) were used at 1:2000 and donkey anti-mouse, donkey anti-goat, and goat anti-rabbit, (Calbiochem) were used at 1:6000. Bands were visualized with the ECL Plus Western Blotting Detection System and Hyperfilm (Amersham).

[10] = Table 4 library screen, read-out: 73M IC50
[11] = read-out: 30M IC50 (μM), Table 4 library screen, alamarBlue
[12] = read-out: IC50 BTSC 30M, Table 6, in parallel with other cancer lines
[13] = Table 4 library screen, alamarBlue

## CN(CC(=O)N(Cc1ccc(C2CCCCC2)cc1)c1ccc(C(=O)O)c(F)c1)S(=O)(=O)c1c(F)c(F)c(F)c(F)c1F [Compound 33, 4-(N-(4-cyclohexylbenzyl)-2-(2,3,4,5,6-pentafluoro-N-methylphenylsulfonamido)acetamido)-2-fluorobenzoic acid]
[1]; [10]
  IC50: 1.23 µM
[2]; [11]
  IC50: 0.724 µM
[2]; read-out: IC50 (nM) in BTSC 30M
  IC50: 0.724 ± 0.013 µM
[2]; [12]
  IC50: 0.689 µM
[3]
  IC50: 1460 nM
[4]
  IC50: < 1000 nM
[5]
  IC50: < 1000 nM
[6]; Homo sapiens, collective range over 8 BTSC lines, read-out: EC50s across all 8 BTSCs evaluated
  EC50: 66 to 1140 nM
[6]; Homo sapiens, collective range, units given in the value, read-out: IC50 values of the top four ranked compounds against BTSCs
  IC50: 100 to 3800 nM
[7]
  IC50: 14200 nM
[8]
  IC50: 935 nM

## Cc1ccc(S(=O)(=O)N(C)CC(=O)N(Cc2ccc(C3CCCCC3)cc2)c2ccc(C(=O)O)c(F)c2)cc1 [Compound 43, 4-(N-(4-cyclohexylbenzyl)-2-(N,4-dimethylphenylsulfonamido)acetamido)-2-fluorobenzoic acid]
[1]; Table 4 library screen
  73M IC50 (μM): no effect
[2]; [13]
  30M IC50 (μM): no effect
[3]
  68EF IC50 (μM): no effect
[8]
  147EF IC50 (μM): no effect

## Cc1ccc(S(=O)(=O)N(C)CC(=O)N(Cc2ccc(C3CCCCC3)cc2)c2ccc(O)cc2)cc1 [Compound 45, N-(4-cyclohexylbenzyl)-2-(N,4-dimethylphenylsulfonamido)-N-(4-hydroxyphenyl)acetamide]
[1]; Table 4 library screen
  73M IC50 (μM): no effect
[2]; [13]
  30M IC50 (μM): no effect
[3]
  68EF IC50 (μM): no effect
[8]
  147EF IC50 (μM): no effect

## Cc1ccc(S(=O)(=O)N(C)CC(=O)N(Cc2ccc(C3CCCCC3)cc2)c2ccc(C(=O)NO)cc2)cc1 [Compound 44, 4-(N-(4-cyclohexylbenzyl)-2-(N,4-dimethylphenylsulfonamido)acetamido)-N-hydroxybenzamide]
[1]; Table 4 library screen
  73M IC50 (μM): no effect
[2]; [13]
  30M IC50 (μM): no effect
[3]
  IC50: 1740 nM
[8]
  IC50: 2450 nM

## C[C@H](NC(=O)/C(C#N)=C/c1cccc(Br)n1)c1ccccc1 [WP1066, reference compound]
[1]; Table 2, BTSC 73M, 72 hrs, read-out: IC50 (μM) 73M
  IC50: 2.1 µM
[2]; read-out: IC50 (μM) 30M, Table 2, BTSC 30M, alamarBlue, 72 hrs
  IC50: 1.8 ± 0.22 µM
[9]
  pSTAT3 suppression, comparative Western blot: equipotent pSTAT3 suppression

## CC(=O)Oc1cc(N(Cc2ccc(C3CCCCC3)cc2)C(=O)CN(C)S(=O)(=O)c2ccc(C)cc2)ccc1C(=O)O [Compound 23, 2-acetoxy-4-(N-(4-cyclohexylbenzyl)-2-(N,4-dimethylphenylsulfonamido)acetamido)benzoic acid]
[1]; Table 4 library screen
  73M IC50 (μM): no effect
[2]; [13]
  30M IC50 (μM): no effect
[3]
  68EF IC50 (μM): no effect
[8]
  147EF IC50 (μM): no effect

## Cc1ccc(S(=O)(=O)N(C)CC(=O)N(Cc2ccc(C3CCCCC3)cc2)c2ccc(N)cc2)cc1 [Compound 11, N-(4-aminophenyl)-N-(4-cyclohexylbenzyl)-2-(N,4-dimethylphenylsulfonamido)acetamide]
[1]; Table 4 library screen
  73M IC50 (μM): no effect
[2]; [13]
  30M IC50 (μM): no effect
[3]
  68EF IC50 (μM): no effect
[8]
  147EF IC50 (μM): no effect

## CN(CC(=O)N(Cc1ccc(C2CCCCC2)cc1)c1ccc(C(=O)O)c(O)c1)S(=O)(=O)c1c(F)c(F)c(F)c(F)c1F [Compound 1, reference compound]
[6]; cytotoxicity, alamarBlue
  activity against BTSCs (in words): low μM activity

## CC(=O)Oc1cc(N(Cc2ccc(C3CCCCC3)cc2)C(=O)CN(C)S(=O)(=O)c2c(F)c(F)c(F)c(F)c2F)ccc1C(=O)O [SH-04-08, 2-acetoxy-4-(N-(4-cyclohexylbenzyl)-2-(2,3,4,5,6-pentafluoro-N-methylphenylsulfonamido)acetamido)benzoic acid]
[2]; [12]
  IC50: 0.9 µM
[4]
  IC50: < 1000 nM
[5]
  IC50: < 1000 nM
[7]
  IC50: 12000 nM

## CN(CC(=O)N(Cc1ccc(C2CCCCC2)cc1)c1ccc(N)cc1)S(=O)(=O)c1c(F)c(F)c(F)c(F)c1F [Compound 10, N-(4-aminophenyl)-N-(4-cyclohexylbenzyl)-2-(2,3,4,5,6-pentafluoro-N-methylphenylsulfonamido)acetamide]
[1]; [10]
  IC50: 1.81 µM
[2]; [11]
  IC50: 1.33 µM
[3]
  IC50: 1720 nM
[8]
  IC50: 1460 nM

## Cc1ccc(S(=O)(=O)N(C)CC(=O)N(Cc2ccc(C3CCCCC3)cc2)c2ccc([N+](=O)[O-])cc2)cc1 [Compound 9, N-(4-cyclohexylbenzyl)-2-(N,4-dimethylphenylsulfonamido)-N-(4-nitrophenyl)acetamide]
[1]; Table 4 library screen
  73M IC50 (μM): no effect
[2]; [13]
  30M IC50 (μM): no effect
[3]
  68EF IC50 (μM): no effect
[8]
  147EF IC50 (μM): no effect

## CN(CC(=O)N(Cc1ccc(C2CCCCC2)cc1)c1ccc([N+](=O)[O-])cc1)S(=O)(=O)c1c(F)c(F)c(F)c(F)c1F [Compound 8, N-(4-cyclohexylbenzyl)-N-(4-nitrophenyl)-2-(2,3,4,5,6-pentafluoro-N-methylphenylsulfonamido)acetamide]
[1]; [10]
  IC50: 1.1 µM
[2]; [11]
  IC50: 0.522 µM
[3]
  IC50: 590 nM
[8]
  IC50: 669 nM
